According to PubChem BioAssay (NCI):
“And” between values parts separate entries of the source, which are not always exact repeats. Equal entries are not always repeated.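 48-hour exposure; five concentrations; linearly interpolated endpoints. GI50 marks 50% less growth. Definition used: TGI = concentration required for complete inhibition of growth.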 *1 amine or outer side, *2 acyl side, *3 side chain or, on linkers, in order; H or OH if unused. Where a SMILES comes first, the peptide text is derived from it. Bridges are numbered along the chain shown (N, C = ends). [ ]: non-standard residue; d: D form. The star is where a group is joined. X19 = O=C([C@H](N[*:1])c1ccc(O[C@H]2O[C@@H](CO)[C@@H](O)[C@@H](O)[C@H]2O[C@@H]2O[C@H](CO)[C@H](O)[C@H](O)[C@@H]2O)cc1)[*:2]; X18 = NC(=O)[C@@H](O[*:3])[C@H](N[*:1])C(=O)[*:2]; X20 = O=C([C@H](N[*:1])c1ccc(O)c(Cl)c1)[*:2]; d(aThr) = C[C@@H](O)[C@@H](N)C(=O)O; dHpg = N[C@@H](C(=O)O)c1ccc(O)cc1; X17 = CC(C)C/C=C/C=C/C(=O)*; dOrn = NCCC[C@@H](N)C(=O)O

Test system: MDA-MB-468 breast
Assay: inhibition of tumour cell growth, NCI panel, 48 h

Structure (SMILES) | GI50 | TGI
COc1c(B(O)O)cccc1-c1nc2c(F)cc3[nH]ncc3c2c2c1CCCC2 | 1060 nM | 3690 nM
O=C(NC1CCN(Cc2ccccc2)CC1)c1cc(C(=O)NC2CCN(Cc3ccccc3)CC2)cc(C(=O)NC2CCN(Cc3ccccc3)CC2)c1 | 866 nM | 1890 nM
COc1cc(C)[nH]c(=O)c1CN1CCc2c(Cl)cc([C@H](OC)C3COC3)c(Cl)c2C1=O | > 100000 nM | > 100000 nM
COc1ccc([C@@H]2[C@@H](O)C(=O)N2c2cc(OC)c(OC)c(OC)c2)cc1 | 24.3 nM | 67.7 nM
CN(C)CCCN=c1cc2c(=O)n(CCCN(C)C)c(=O)c3c(NCCCN(C)C)cc4c(O)n(CCCN(C)C)c(=O)c1c4c3-2 | 1300 nM | 3580 nM
COc1ccc(Cl)cc1NC(=O)c1c(NC(=O)C(F)(F)C(F)(F)F)sc2c1CCCCC2 | 765 nM | 4680 nM
Cc1nn(-c2ccccc2)c2ncnc(N/N=C/c3ccccc3O)c12 | 1560 nM | 8590 nM
C[C@@H](Oc1cc(NS(=O)(=O)N2CCC2)nc(SCc2cccc(F)c2F)n1)[C@@H](O)CO | > 100000 nM | > 100000 nM
O=C1/C(=C/c2ccccc2)CN(CCC(=O)N2C/C(=C\c3ccccc3)C(=O)/C(=C/c3ccccc3)C2)C/C1=C\c1ccccc1 | 9330 nM | 42800 nM
NC(=O)c1cc(Cl)ccc1NC(=O)c1ccccc1-c1ccccc1 | 448 nM | 48700 nM
Cc1cccc2c1NC(=O)[C@@]21[C@H](C(=O)c2ccccc2)[C@]2(C(=O)Nc3ccccc32)[C@H]2CCCN21 | 22300 nM | > 100000 nM
O=C1/C(=C/c2ccccc2Br)COc2ccc(O)c(O)c21 | 1650 nM | 3940 nM
C=C1SC(=Nc2ccccc2Cl)N(C(=O)c2sc3ccccc3c2Cl)C1(C)C | 12600 nM | > 100000 nM
Cc1cc(C(NC(=O)CCCCCNc2cccc3c2C(=O)N(C2CCC(=O)NC2=O)C3=O)c2cccnc2)c(O)c2ncccc12 (centres undefined) | < 10 nM | 32.8 nM
COc1cccc(-c2nc(-c3ccc(NC(=O)c4ccccc4)cc3)[nH]c2-c2ccnc(Br)c2)c1 | 2870 nM | > 100000 nM
N/C(=N\c1nc2ccccc2s1)NC(=O)Nc1ccccc1Cl | 317 nM | 5920 nM
CCCCNC(=O)Oc1ccc2c(=O)c3sc4c(=O)c5ccccc5c(=O)c4c3c(=O)c2c1 | 1450 nM | 3390 nM
O=c1ccccc(-c2ccc(-c3ccco3)cc2)c1O | 320 nM | 3300 nM
N#C/C(=C/C=C/c1ccccc1)S(=O)c1ccccc1 (centres undefined) | 274 nM | 987 nM
COc1cc(/C=C2\CN(S(=O)(=O)c3ccc(C)cc3)C/C(=C\c3cc(CN4CCCCC4)c(O)c(OC)c3)C2=O)cc(CN2CCCCC2)c1O | 1940 nM | 3990 nM
O=C1/C=C/[C@@H](O)[C@@H]2C[C@@H](O)C[C@H]2/C=C/CCC[C@H](CO)O1 | 419 nM | 2770 nM

Structure (SMILES) | GI50 | TGI
C#Cc1cccc(Nc2ncnc3ccc(-c4cnc(Cl)c(NS(C)(=O)=O)c4)cc23)c1 | 178 nM | 880 nM
CC1OC(O[C@H]2/C=C/C=C/C=C/C=C/C=C/C=C/C=C/[C@H](C)[C@@H](O)[C@@H](C)[C@H](C)OC(=O)C[C@H](O)C[C@H](O)CC[C@@H](O)[C@H](O)C[C@H](O)C[C@]3(O)C[C@H](O)[C@@H](C(=O)O)[C@H](C2)O3)C(O)C(N)C1O (some centres undefined) | 53300 nM | > 100000 nM
Cc1ccc2c(N/N=C\c3ccco3)cc(C)nc2n1 | 2680 nM | 7470 nM
CC(C)(C)N1CC(OC(N)=O)C1 | > 100000 nM | > 100000 nM
O=C(Nc1ccc(Cl)cc1)c1cc2cc(F)ccc2cc1O | 2470 nM | 6170 nM
Cc1cccc2c1O/C(=C\c1ncc([N+](=O)[O-])n1C)C2=O | 1410 nM | 4010 nM
O=C1c2cccc3cc([N+](=O)[O-])cc(c23)C(=O)N1CCN1CCCC1 | 605 nM | 2440 nM
COc1cc2c(Nc3ccc(Br)cc3F)ncnc2cc1OCC1CCN(C)CC1 | 455 nM and 452 nM | 2570 nM and 3530 nM
COc1ccccc1N1CCN(C(=O)c2ccc(NS(=O)(=O)c3cccc4cccnc34)cc2)CC1 | > 28900 nM | > 100000 nM
COc1ccc(-c2csc(NC(=O)N3CCN(c4cc5c(cc4F)c(=O)c(C(=O)O)cn5C4CC4)CC3)n2)cc1 | 1140 nM | 8130 nM
O=S(=O)(NCCCNc1cc(-c2cn(-c3ccccc3)nc2-c2cccc(O)c2)ccn1)c1cccc2ccccc12 | 1850 nM | 6010 nM
O=C1CCC2=C3C4CCCCC4C(=O)C4CCCC(OC2C1)C34 (centres undefined) | 1870 nM | 5200 nM
CCn1cc(C(=O)N/N=C/c2cccc(F)c2)c(=O)c2cc(F)c(N3CCNC(C)C3)c(F)c21 (centres undefined) | 1640 nM | 3180 nM
CC(C)C/C=C/C=C/C(=O)N[C@@H](CC(N)=O)C(=O)N[C@@H]1C(=O)N[C@H](c2ccc(O)cc2)C(=O)N[C@H](CCCN)C(=O)N[C@H]([C@@H](C)O)C(=O)N[C@H](c2ccc(O)cc2)C(=O)N[C@H](c2ccc(O)cc2)C(=O)N[C@H]([C@H](C)O)C(=O)N[C@H](Cc2ccccc2)C(=O)N[C@H](CCCN)C(=O)N[C@H](c2ccc(O[C@H]3O[C@@H](CO)[C@@H](O)[C@@H](O)[C@H]3O[C@@H]3O[C@H](CO)[C@H](O)[C@H](O)[C@@H]3O)cc2)C(=O)N[C@H]([C@H](C)O)C(=O)N[C@H](c2ccc(O)cc2)C(=O)NCC(=O)N[C@H](CC(C)C)C(=O)N[C@H](C)C(=O)N[C@H](c2ccc(O)c(Cl)c2)C(=O)O[C@@H]1C(N)=O (X17-N[X18][dHpg][dOrn][d(aThr)][dHpg][dHpg][dT][dF][dOrn][X19][dT][dHpg]G[dL][dA][X20]; ester 2-C) | 19700 nM | 56700 nM
CNC(=O)c1cncc(/C=C/c2c(C)cccc2C)c1 | > 22700 nM | > 25000 nM
CCC(c1ccc(OC)cc1)C(CC)c1ccc(O)c(CN2CCCC2)c1 (centres undefined) | 1620 nM | 3690 nM
COc1cc([C@@H]2c3cc4c(cc3[C@H](OC(C)=O)[C@H]3COC(=O)[C@H]23)OCO4)cc(OC)c1OC | 29.5 nM | > 100000 nM
CCC1CCCCN1C(=S)N/N=C(\C)c1ccccn1 (centres undefined) | < 15.3 nM | 503 nM
O=C(O[C@H]1CN[C@H](C#Cc2cc3ncnc(Nc4ccc(OCc5cccc(F)c5)c(Cl)c4)c3s2)C1)N1CCOCC1 | 391 nM | 4780 nM
Oc1ccc2ccccc2c1N=Nc1ccccn1 | 1410 nM | 4890 nM
COC(=O)c1cc2c3c(cc(O)c2[nH]1)N(C(=O)C1Cc2cc(OC)c(OC)c(OC)c2N1)CC3CCl (centres undefined) | < 10 nM | < 10 nM
